Here are results for two compounds from patent publication US20250320190A1, “Novel Inhibitors of Leucine Carboxyl Methyltransferase-1 (LCMT-1) and Methods of Use Thereof” (Temple University-Of The Commonwealth System of Higher …, priority 2024, published 2025).

The subject of data set [1] is Rosi cells. The experiment in a line: Western blots. The class given is cell-based, human. As to conditions: 20 μM, Compound 2 significant at 6 hours. The method, then:
(§1) MCF7, MDA-MB-231 and Rosi cells were treated with Compound 1 or Compound 2 at a concentration of 20 μM in complete medium, and lysates were harvested after 2, 4, 6, 8 and 12 hours in radioimmunoprecipitation assay buffer containing protease inhibitors (Boster Bio, Pleasanton, California, catalog #AR1182-1) and phosphatase inhibitors (Santa Cruz Biotechnology catalog #sc-45044 and #sc-45045). Protein concentrations were measured with a bicinchoninic acid assay (G-Biosciences, Saint Louis, Missouri). Fifty micrograms of each lysate were used for bis-tris polyacrylamide gel electrophoresis. Resolved lysates were transferred to nitrocellulose membranes. Membranes were blocked with TBS with 5% bovine serum albumin before incubation with primary antibodies.
(§2) Antibodies obtained from Cell Signaling Technology (Danvers Massachusetts) were, anti-PP2Ac (catalog #2038, 1:1,000 dilution), anti-phospho-adenosine monophosphate-activated protein kinase (pAMPKα2 threonine 172, catalog #2535, 1:1,000 dilution). Antibodies obtained from Proteintech (Rosemont, Illinois) include anti-phospho-receptor-interacting serine/threonine protein kinase-1 antibodies (pRIPK1 serine 161 (catalog #66854-1-Ig, 1:1,000 dilution) and pRIPK1 serine 166 (catalog #28252-1-AP, 1:10,000 dilution), anti-mixed lineage kinase domain like pseudokinase (MLKL, catalog #66675-1-Ig, 1:5,000 dilution), anti-AMPKα2, anti-phospho-acetyl-coenzyme A carboxylase (pACC1 serine 79, catalog #29119-1-AP, 1:1,000 dilution), anti-ACC1 (catalog #21923-1-AP, 1:2,000 dilution) and anti-β-actin (catalog #66009-1-Ig, 1:50,000 dilution). The anti-RIPKI antibody was obtained from AbClonal (Woburn, Massachusetts, catalog #A7414, 1:750 dilution). The anti-phospho-MLKL antibody was obtained from R&D Systems (Minneapolis, Minnesota, 1:1,000 dilution). The LCMT-1 antibody was obtained from Origene (Rockville, Maryland, catalog #TA503127S, 1:2,000 dilution). Appropriate IR-dye secondary antibodies were used (Alexa Fluor® 790-conjugated anti-mouse (catalog #115-655-146, 1:50,000 dilution), Alexa Fluor® 680-conjugated anti-mouse (catalog #115-625-146, 1:50,000 dilution), and Alexa Fluor® 680-conjugated anti-rabbit (catalog #115-625-144, 1:50,000 dilution) were obtained from Jackson ImmunoResearch Laboratories (West Grove, Pennsylvania). Band densities were normalized to β-actin, the endogenous control. At least five replicates were used for statistical analyses.

Data set [2] has as its system MCF7 cells. Briefly: Western blots. The format is cell-based, human. The following applies: 20 μM, lysates after 2, 4, 6, 8 and 12 hours. As to the method: as §1, §2
In general terms: In western blotting, separated proteins are transferred to a membrane and probed.

Data set [3] concerns MDA-MB-231 cells. The experiment in a line: Western blots. The class given is cell-based, human. The following applies: 20 μM, Compound 2 significant at 4 hours. The method, then:
as §1, §2

Data set [4] in a line: Liver microsomal stability. The class given is in vitro ADME. From the text:
(§3) There is no cause for concern at this stage since there are multiple strategies and reagents for enhancing aqueous solubility for animal in vivo studies (Savjani, K. T., A. K. Gajjar and J. K. Savjani, 2012, ISRN Pharm 2012: 195727.). […] While target tissue exposure is dependent on free, unbound fractions in the plasma, plasma protein binding can protect compounds from hepatic metabolism. Thus, in vivo metabolism and excretion are often determined by a balance between these two properties. In vivo half-life is a complicated property impacted upon by multiple factors and is difficult to predict. […] While these numbers are somewhat low for a drug candidate, they are acceptable for proof of concept tool molecules which can be given multiple times per day and at higher doses to saturate metabolism.

Data set [5] is described as follows: Plasma protein binding. The format is in vitro ADME. The following applies: read-out: Plasma Protein Binding (bound fraction) (converted).
Excerpt: as §3

Data set [6] in a line: Kinetic solubility. The format is physicochemical. As to conditions: 2% dimethylsulfoxide/PBS, aqueous buffer, kinetic from dmso stock; read-out: Max. Kinetic Solubility.
Excerpt: as §3

A short description of data set [7]: Plasma stability. The following applies: mouse plasma; read-out: Plasma Stability (t1/2). The format is in vitro ADME.
Excerpt: as §3

The target of data set [8] is T1, rhLCMT-1 (Homo sapiens, UniProt Q9UIC8).
T1 construct: purchased SignalChem (Richmond, British Columbia, Canada)
T1 sequence (Q9UIC8 whole entry): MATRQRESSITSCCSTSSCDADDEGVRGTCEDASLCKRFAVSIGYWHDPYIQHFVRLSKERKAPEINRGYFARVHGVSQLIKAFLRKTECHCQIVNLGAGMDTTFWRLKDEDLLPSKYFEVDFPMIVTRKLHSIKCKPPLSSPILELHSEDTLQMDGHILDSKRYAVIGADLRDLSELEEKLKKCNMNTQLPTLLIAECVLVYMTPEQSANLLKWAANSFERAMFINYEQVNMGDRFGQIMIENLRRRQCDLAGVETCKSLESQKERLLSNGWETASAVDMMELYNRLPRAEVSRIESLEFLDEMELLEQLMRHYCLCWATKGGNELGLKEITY
The experiment in a line: rhLCMT-1 activity assay (dot immunoblot). The class given is biochemical. The following applies: each inhibitor 50 μM; 20 μM SAM; 37° C. for 30 minutes. As to the method: Recombinant human LCMT-1 (rhLCMT-1) and rhPP2Ac were obtained from SignalChem (Richmond, British Columbia, Canada). Methyltransferase assays were performed with 100 ng rhLCMT-1 and 91.62 ng rhPP2Ac (2:1 molar ratio) (28) in reaction buffer containing 20 mM Tris (pH 8.0), 50 mM NaCl, 1 mM EDTA. rhLCMT-1 was incubated with Compound 1 (Chemspace, San Jose, California), Compound 2 (Akos Consulting and Solutions, Amtsgericht, Freiburg, Germany) or sinefungin, a SAM analogue, (Active Motif, Carlsbad, California), each at 50 μM final concentration, for 10 minutes at room temperature. rhPP2Ac was added to the reactions with 20 μM (final concentration) SAM (New England Biolabs, Ipswich, Massachusetts, FIG. 9). […] Reactions were incubated at 37° C. for 30 minutes (FIG. 10). Because the inhibitors gave false positive results with the secondary reactions used in colorimetric and bioluminescent methyltansferase assays, LCMT-1 activity was assessed using dot immunoblots. Reactions were applied to nitrocellulose membranes (Cytiva, Marlborough, Massachusetts). […] Membranes were treated with infrared (IR)-dye anti-mouse antibody (Li-Cor, Lincoln, Nebraska, catalog #926-32210, 1:20,000 dilution) and densities were measured with Li-Cor Image Studio (version 5.2) software. rhLCMT-1 inhibition assays were performed three times, each time with five replicates for each condition.

In data set [9] the test system is Rosi cells. Briefly: Cytotoxicity assay (calcein-AM). The format is cell-based, human. As to the method: HS-5, HEK-293, MCF7, MDA-MB-231 and Rosi cells were seeded in 96-well optical bottom tissue culture plates (Corning, New York) at a density of 2.5×10^3 cells/well. […] Control cells were given fresh media. After 48 hours the media were aspirated and plates were washed with warmed Dulbecco's phosphate-buffered saline (DPBS) with calcium and magnesium (Sigma-Aldrich, catalog #D1283). Cells were stained with 3 μM calcein-AM (AAT Bioquest, Pleasanton, California, catalog #22002) in DPBS for 30 minutes in the dark at 37° C. Plates were immediately read with a Biotek fluorescent plate reader (excitation 485 nm, emission 520 nm). The cytotoxicity assays were performed at least three times, each time with six replicates per condition.

In data set [10] the test system is Rosi cells. Briefly: Cell cycle analysis (BrdU flow cytometry). The format is cell-based, human. As to conditions: 20 μM, 24 hours. The method, then:
(§4) MCF7, MDA-MB-231 and Rosi cells were seeded in 6-well tissue culture plates (Celltreat) at a density of 5×10^5 cells per well. After 24 hours, the DMEM was changed to media containing 20 μM LB-100 or Compound 2. Control cells were given fresh media. After 24 hours, cells were labeled with 50 μM bromodeoxyuridine (BrdU, BioGems, Westlake Village, California, catalog #5911439). Cells were lifted with 0.25% trypsin, 2.21 mM ethylenediaminetetraacetic acid (Corning catalog #25-053-CI) after 4 hours and fixed with 70% ethanol overnight at 4° C. Cells were pelleted and cellular DNA was denatured with HCl. After neutralization with 1 M Tris, pH 8.5, cells were labeled with FITC-anti-BrdU (Biolegend, San Diego, California, catalog #364104, 5 μL/100 μL cell suspension) and 7-aminoactinomycin-D (7-AAD, Biolegend, catalog #420404, 1 μL/100 μL cell suspension). Cells were analyzed with a Becton-Dickinson FACSymphony™ flow cytometer. Cell cycle analyses were performed three times.
(In general: Flow cytometry measures light scatter and fluorescence of single cells or particles in a stream.)

Data set [11] concerns MCF7 cells. Briefly: Cell cycle analysis (BrdU flow cytometry). The following applies: 20 μM, 24 hours. The class given is cell-based, human. As to the method: as §4
The test system of data set [12] is MDA-MB-231 cells. Briefly: Cell cycle analysis (BrdU flow cytometry). The format is cell-based, human. As to conditions: 20 μM, 24 hours. The method, then:
as §4

The test system of data set [13] is HEK-293 cells. The experiment in a line: Cytotoxicity assay (calcein-AM). The class given is cell-based. As to the method: (§5) HS-5, HEK-293, MCF7, MDA-MB-231 and Rosi cells were seeded in 96-well optical bottom tissue culture plates (Corning, New York) at a density of 2.5×10^3 cells/well. After 24 hours, the media were changed to media containing LB-100 (Cayman Chemical Company, Ann Arbor, Michigan) or Compound 2 at various concentrations (50-0.31 μM). Control cells were given fresh media. After 48 hours the media were aspirated and plates were washed with warmed Dulbecco's phosphate-buffered saline (DPBS) with calcium and magnesium (Sigma-Aldrich, catalog #D1283). Cells were stained with 3 μM calcein-AM (AAT Bioquest, Pleasanton, California, catalog #22002) in DPBS for 30 minutes in the dark at 37° C. Plates were immediately read with a Biotek fluorescent plate reader (excitation 485 nm, emission 520 nm). The cytotoxicity assays were performed at least three times, each time with six replicates per condition.

For data set [14], the system named is HS-5 cells. The experiment in a line: Cytotoxicity assay (calcein-AM). The class given is cell-based. The method, then: as §5
The test system of data set [15] is Rosi cells. Briefly: Colony forming assay. The class given is cell-based, human. As to conditions: 50-3.25 μM, one week. As to the method:
(§6) MCF7, MDA-MB-231 and Rosi cells were seeded in 96-well tissue culture plates (Celltreat, Pepperell, Massachusetts) at a density of 90 cells per well (Mayr et al. Int J Mol Sci. 2018; 19(3)). After 24 hours, the media were changed to media containing LB-100 or Compound 2 at various concentrations (50-3.25 μM). Control cells were given fresh media. After one week the media were aspirated and the wells were washed with PBS. Cells were stained with crystal violet solution (0.25 g crystal violet in 20% methanol) for 10 minutes. The wells were washed 6 times with PBS to remove excess crystal violet. Colonies were counted with an ECHO Revolve hybrid microscope at 1.5× magnification. There were ten replicates for each condition.

The test system of data set [16] is MCF7 cells. The experiment in a line: Colony forming assay. The class given is cell-based, human. As to conditions: 50-3.25 μM, one week. The method, then:
as §6

Data set [17] concerns MDA-MB-231 cells. The experiment in a line: Colony forming assay. The format is cell-based, human. As to conditions: 50-3.25 μM, one week. As to the method: as §6
The test system of data set [18] is Rosi cells. The experiment in a line: Annexin V assay. The format is cell-based, human. The following applies: 5-20 μM, 48 hours. As to the method:
(§7) MCF7, MDA-MB-231 and Rosi cells were treated with LB-100 and Compound 2 at 5-20 μM concentrations. After 48 hours, cells were lifted with Accutase and washed twice with PBS (pH 7.4) with 10% FBS. Cells were resuspended in annexin V binding buffer (10 mM HEPES (pH 7.4), 140 mM NaCl and 2.5 mM CaCl2)) and labeled with FITC-anti-Annexin V and 7-AAD (Biolegend, FITC Annexin V Apoptosis Detection Kit with 7-AAD, catalog #640922). Cell surface annexin V expression was assessed with flow cytometry.

Data set [19] deals with MDA-MB-231 cells. Briefly: Annexin V assay. The format is cell-based, human. The following applies: 5-20 μM, 48 hours. As to the method: as §7
The subject of data set [20] is MCF7 cells. Briefly: Cytotoxicity assay (calcein-AM). The format is cell-based, human. As to the method:
as §5

The subject of data set [21] is MDA-MB-231 cells. The experiment in a line: Cytotoxicity assay (calcein-AM). The class given is cell-based, human. As to conditions: Homo sapiens, MDA-MB-231, 48 h, read-out: Log [μM] EC50 (converted). As to the method:
as §5

The kinetic solubility is the concentration staying in solution when a stock, usually in DMSO, is diluted into the medium. As usually defined, the EC50 is the concentration at which the effect is half-maximal.

Converted amounts (≈) assume the structure as drawn.

On to `O=C(COc1cccc2ccccc12)Nc1ccccc1O` [Compound 1, N-(2-Hydroxyphenyl)-2-(1-naphthalenyloxy)acetamide], for which the PP2Ac methylation result in data set [1], in data set [2] and in data set [3] was “did not increase PP2Ac methylation” throughout. Moreover, the half-life is 45.7 min in data set [4] (human liver microsomes, read-out: Liver Microsomal Stability (t1/2) Human); 20 min in data set [4] (mouse liver microsomes, read-out: Liver Microsomal Stability (t1/2) Mouse); greater than 180 min in data set [7]. In [5], the fraction unbound is 0.033. For the same compound, the kinetic solubility in data set [6] is 27.1 µM (≈ 7.95 µg/mL). For the same compound, the “methylation of rhPP2Ac by rhLCMT-1” value in data set [8] is “did not significantly inhibit PP2Ac methylation”.

Take `CN1CCN(C(=O)C2C(C(=O)O)[C@H]3CC[C@@H]2O3)CC1` (some centres unmarked) [LB-100, reference compound]: the EC50 was 21900 µM in data set [9] (Homo sapiens, 48 h, read-out: Log [μM] EC50 (converted)); 21.4 µM in data set [13] (Homo sapiens, HEK293, 48 h, read-out: Log [μM] EC50 (converted)); 36.3 µM in data set [14] (HS5, 48 h, read-out: Log [μM] EC50 (converted)); 45.7 µM in [20] (Homo sapiens, MCF7, 48 h, read-out: Log [μM] EC50 (converted)); 6.76 µM in data set [21]. For the same compound, the “concentration at which survival was significantly inhibited” value was 20 µM in data set [9] (Rosi, 48 hours) and 20 µM in data set [13] (HEK-293, 48 hours). In addition, the cell cycle effect result is “induced G2/M-phase arrest” in data set [10], “induced G0/G1 arrest” in [11] and “induced G2/M-phase arrest” in data set [12]. For the same compound, the “concentration at which cytotoxicity was significant” value in [14] (human, 48 h) is 20 µM. For the same compound, the clonogenic colony formation entry in data set [15] is reported as “inhibited colony formation”; in [16] it was “inhibited to a lesser extent”; in data set [17], “inhibited colony formation”. Also, the “apoptosis (cell surface annexin V expression)” value in data set [18] and in data set [19] was “induced apoptosis” each time. Moreover, the inhibition of survival result in [20] (MCF7, concentrations tested 50-0.31 μM, 48 hours) was “Neither LB-100 nor Compound 2 significantly inhibited survival”.
